pIC50: −log10 of the molar value.
Experiments:
[1] = molecular target: T1, N370S glucocerebrosidase (GC) in tissue homogenate (Homo sapiens, UniProt P04062, N409S); assay type: biochemical; conditions: for reduction of activity (fold, relative to 26ad): N370S tissue homogenate AC50 compared with parent quinazoline 26ad
T1 sequence (P04062 40-536 N409S): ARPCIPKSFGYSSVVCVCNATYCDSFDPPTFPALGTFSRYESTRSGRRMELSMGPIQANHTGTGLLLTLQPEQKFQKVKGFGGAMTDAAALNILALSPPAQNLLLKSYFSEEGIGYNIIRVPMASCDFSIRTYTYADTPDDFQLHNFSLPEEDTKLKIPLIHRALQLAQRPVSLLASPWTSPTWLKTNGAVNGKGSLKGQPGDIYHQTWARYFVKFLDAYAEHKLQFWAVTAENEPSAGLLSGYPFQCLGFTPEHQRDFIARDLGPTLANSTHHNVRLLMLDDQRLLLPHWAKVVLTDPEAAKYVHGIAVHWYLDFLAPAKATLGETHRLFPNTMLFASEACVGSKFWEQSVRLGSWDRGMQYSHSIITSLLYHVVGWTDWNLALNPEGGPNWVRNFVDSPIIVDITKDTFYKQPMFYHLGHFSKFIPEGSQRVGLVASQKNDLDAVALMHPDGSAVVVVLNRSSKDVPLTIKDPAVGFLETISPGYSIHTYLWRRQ

[2] = test system: wildtype and homozygous mutant N370S GC fibroblasts; assay: Chaperone activity: translocation of GC to the lysosome in fibroblasts; assay type: cell-based, human; conditions: for lysosomal GC protein after treatment: 10 uM, wildtype and N370S GC fibroblasts, GC and LAMP1 antibody staining; for amount of GC localized to the lysosome: 1 nM to 25 uM, five days incubation, wildtype and mutant fibroblasts
purified GC = assay: Purified enzyme assays of GC activity without exogenous cofactors; assay type: biochemical; conditions: no exogenous activating cofactors

reduction of activity (fold, relative to 26ad) [1]	SMILES	amount of GC localized to the lysosome [2]	also measured
10 times	Cc1ccc(S(=O)(=O)N2CCN(c3nc(-c4cccs4)nc(C)c3C)CC2)cc1 [Compound 76, 4,5-dimethyl-2-(thiophen-2-yl)-6-(4-tosylpiperazin-1-yl)pyrimidine]	–	–
32 times	Cc1ccc(S(=O)(=O)N2CCN(c3ccnc(-c4cccs4)n3)CC2)cc1 [Compound 74, 2-(thiophen-2-yl)-4-(4-tosylpiperazin-1-yl)pyrimidine]	–	–
–	OC[C@H]1CNC[C@@H](O)[C@@H]1O [Isofagomine, reference compound]	–	lysosomal GC protein after treatment [2]: increased lysosomal GC protein
–	O=S(=O)(c1ccc(Cl)cc1)N1CCN(c2nc(-c3cccs3)nc3ccccc23)CC1 [Compound 10, 4-(4-(4-chlorophenylsulfonyl)piperazin-1-yl)-2-(thiophen-2-yl)quinazoline]	–	activity in purified enzyme assays of GC compared with tissue homogenate (purified GC): greatly diminished
–	O=S(=O)(c1ccc2c(c1)OCCO2)N1CCN(c2nc(-c3cccs3)nc3ccccc23)CC1 [Compound 26bs, 4-(4-(2,3-dihydrobenzo[b][1,4]dioxin-6-ylsulfonyl)piperazin-1-yl)-2-(thiophen-2-yl)quinazoline]	clear increase of the amount of GC localized to the lysosome	–
–	COc1ccccc1S(=O)(=O)N1CCN(c2nc(-c3cccs3)nc3ccccc23)CC1 [Compound 26ai, 4-(4-(2-methoxyphenylsulfonyl)piperazin-1-yl)-2-(thiophen-2-yl)quinazoline]	clear increase of the amount of GC localized to the lysosome	–
at least 10 times	Cc1ccc(S(=O)(=O)N2CCN(c3nc(-c4cccs4)nc4ncccc34)CC2)cc1 [Compound 73, 2-(thiophen-2-yl)-4-(4-tosylpiperazin-1-yl)pyrido[2,3-d]pyrimidine]	–	–
–	Cc1ccc(S(=O)(=O)N2CCN(c3nc(-c4cccs4)nc4ccccc34)CC2)cc1 [Compound 26ad, 4-(4-(4-methylphenylsulfonyl)piperazin-1-yl)-2-(thiophen-2-yl)quinazoline]	clear increase of the amount of GC localized to the lysosome	pIC50 ([1]; "blue" GC enzyme assay, tissue homogenate): 6.49
at least 10 times	Cc1ccc(S(=O)(=O)N2CCN(c3nc(-c4cccs4)nc4cccnc34)CC2)cc1 [Compound 72, 2-(thiophen-2-yl)-4-(4-tosylpiperazin-1-yl)pyrido[3,2-d]pyrimidine]	–	–
–	O=S(=O)(c1ccc2ccccc2c1)N1CCN(c2nc(-c3cccs3)nc3ccccc23)CC1 [Compound 14]	clear increase of the amount of GC localized to the lysosome	lysosomal GC protein after treatment [2]: increased lysosomal GC protein

Reference: paper PMC3103057 (Journal of medicinal chemistry, 2011)
